Measured values taken from the supplement of paper PMC10307832.

What was measured:
Assay in all cases: relative viability (nuclei count vs DMSO), 5 days (fraction); higher = more cells survive
[1] = tested on: ABC-1
In short: (§1)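 For relative viability, nuclei counts in treated wells were divided by those in vehicle wells. Lung cancer cell lines had been pin-tool dosed in 1536-well plates the day after seeding and cultured for 5 days, then fixed and stained in one step (final 0.05% Triton X-100, 1% formaldehyde, 1 ug/ml Hoechst) and imaged at 4×. Doses were one drug alone or a fixed anchor-drug dose plus five library-drug doses (not always all listed) in √10 steps, and values are duplicate-plate medians.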

[2] = tested on: CAL-12T
In short: as §1

[3] = tested on: COR-L23
In short: as §1

[4] = tested on: EKVX
In short: as §1

[5] = tested on: H3255
In short: as §1

[6] = tested on: HCC-15
In short: as §1

[7] = tested on: HCC-827
In short: as §1

[8] = tested on: LK-2
In short: as §1

[9] = tested on: NCI-H1355
In short: as §1

[10] = tested on: NCI-H1437
In short: as §1

[11] = tested on: NCI-H1650
In short: as §1

[12] = tested on: NCI-H1651
In short: as §1

[13] = tested on: NCI-H1734
In short: as §1

[14] = tested on: NCI-H2228
In short: as §1

[15] = tested on: NCI-H2405
In short: as §1

[16] = tested on: NCI-H322M
In short: as §1

[17] = tested on: NCI-H520
In short: as §1

[18] = tested on: NCI-H661
In short: as §1

[19] = tested on: PC-14
In short: as §1

[20] = tested on: PC-3 [JPC-3]
In short: as §1

[21] = tested on: RERF-LC-KJ
In short: as §1

[22] = tested on: SK-MES-1
In short: as §1

[23] = tested on: SW 1573
In short: as §1

Clc1ccc(Nc2nnc(Cc3ccncc3)c3ccccc23)cc1 [Vatalanib] + O=C(c1cc(Cc2n[nH]c(=O)c3ccccc23)ccc1F)N1CCN(C(=O)C2CC2)CC1 [Olaparib] (partner 8 µM)
relative viability ([1]; first compound 0.04 µM): 0.642
relative viability ([1]; first compound 0.1265 µM): 0.689
relative viability ([1]; first compound 0.4 µM): 0.421
relative viability ([1]; first compound 4 µM): 0.869
relative viability ([2]; first compound 0.04 µM): 0.692
relative viability ([2]; first compound 0.1265 µM): 0.645
relative viability ([2]; first compound 0.4 µM): 0.773
relative viability ([2]; first compound 1.265 µM): 0.697
relative viability ([2]; first compound 4 µM): 0.672
relative viability ([3]; first compound 0.04 µM): 0.363
relative viability ([3]; first compound 0.1265 µM): 0.356
relative viability ([3]; first compound 0.4 µM): 0.402
relative viability ([3]; first compound 1.265 µM): 0.337
relative viability ([3]; first compound 4 µM): 0.345
relative viability ([4]; first compound 0.04 µM): 0.955
relative viability ([4]; first compound 0.1265 µM): 0.885
relative viability ([4]; first compound 0.4 µM): 0.851
relative viability ([4]; first compound 1.265 µM): 0.66
relative viability ([4]; first compound 4 µM): 0.756
relative viability ([5]; first compound 0.04 µM): 0.555
relative viability ([5]; first compound 0.1265 µM): 0.579
relative viability ([5]; first compound 0.4 µM): 0.596
relative viability ([5]; first compound 1.265 µM): 0.576
relative viability ([5]; first compound 4 µM): 0.543
relative viability ([6]; first compound 0.04 µM): 0.795
relative viability ([6]; first compound 0.1265 µM): 0.723
relative viability ([6]; first compound 0.4 µM): 0.781
relative viability ([6]; first compound 1.265 µM): 0.684
relative viability ([6]; first compound 4 µM): 0.696
relative viability ([7]; first compound 0.04 µM): 0.56
relative viability ([7]; first compound 0.1265 µM): 0.655
relative viability ([7]; first compound 1.265 µM): 0.534
relative viability ([7]; first compound 4 µM): 0.638
relative viability ([8]; first compound 0.04 µM): 0.723
relative viability ([8]; first compound 0.1265 µM): 0.72
relative viability ([8]; first compound 0.4 µM): 0.792
relative viability ([8]; first compound 1.265 µM): 0.702
relative viability ([8]; first compound 4 µM): 0.816
relative viability ([9]; first compound 0.04 µM): 0.732
relative viability ([9]; first compound 0.1265 µM): 0.79
relative viability ([9]; first compound 0.4 µM): 0.809
relative viability ([9]; first compound 1.265 µM): 0.699
relative viability ([9]; first compound 4 µM): 0.706
relative viability ([10]; first compound 0.04 µM): 0.67
relative viability ([10]; first compound 0.1265 µM): 0.625
relative viability ([10]; first compound 0.4 µM): 0.679
relative viability ([10]; first compound 1.265 µM): 0.625
relative viability ([10]; first compound 4 µM): 0.606
relative viability ([11]; first compound 0.04 µM): 0.985
relative viability ([11]; first compound 0.1265 µM): 0.734
relative viability ([11]; first compound 0.4 µM): 0.852
relative viability ([11]; first compound 1.265 µM): 0.74
relative viability ([11]; first compound 4 µM): 0.798
relative viability ([12]; first compound 0.04 µM): 0.19
relative viability ([12]; first compound 0.1265 µM): 0.184
relative viability ([12]; first compound 0.4 µM): 0.195
relative viability ([12]; first compound 1.265 µM): 0.202
relative viability ([12]; first compound 4 µM): 0.179
relative viability ([13]; first compound 0.04 µM): 0.64
relative viability ([13]; first compound 0.1265 µM): 0.582
relative viability ([13]; first compound 0.4 µM): 0.621
relative viability ([13]; first compound 1.265 µM): 0.609
relative viability ([13]; first compound 4 µM): 0.617
relative viability ([14]; first compound 0.04 µM): 0.648
relative viability ([14]; first compound 0.1265 µM): 0.772
relative viability ([14]; first compound 0.4 µM): 0.816
relative viability ([14]; first compound 1.265 µM): 0.654
relative viability ([14]; first compound 4 µM): 0.598
relative viability ([15]; first compound 0.04 µM): 0.808
relative viability ([15]; first compound 0.1265 µM): 0.807
relative viability ([15]; first compound 0.4 µM): 0.957
relative viability ([15]; first compound 4 µM): 0.87
relative viability ([16]; first compound 0.04 µM): 0.452
relative viability ([16]; first compound 0.1265 µM): 0.662
relative viability ([16]; first compound 0.4 µM): 0.781
relative viability ([16]; first compound 4 µM): 0.778
relative viability ([17]; first compound 0.04 µM): 0.392
relative viability ([17]; first compound 0.1265 µM): 0.361
relative viability ([17]; first compound 0.4 µM): 0.37
relative viability ([17]; first compound 1.265 µM): 0.283
relative viability ([17]; first compound 4 µM): 0.34
relative viability ([18]; first compound 0.04 µM): 0.769
relative viability ([18]; first compound 0.1265 µM): 0.757
relative viability ([18]; first compound 0.4 µM): 0.788
relative viability ([18]; first compound 1.265 µM): 0.73
relative viability ([18]; first compound 4 µM): 0.706
relative viability ([19]; first compound 0.04 µM): 0.192
relative viability ([19]; first compound 0.1265 µM): 0.195
relative viability ([19]; first compound 0.4 µM): 0.295
relative viability ([19]; first compound 1.265 µM): 0.276
relative viability ([19]; first compound 4 µM): 0.309
relative viability ([20]; first compound 0.04 µM): 1.15
relative viability ([20]; first compound 0.1265 µM): 1.02
relative viability ([20]; first compound 0.4 µM): 0.786
relative viability ([20]; first compound 1.265 µM): 1.04
relative viability ([20]; first compound 4 µM): 1.1
relative viability ([21]; first compound 0.04 µM): 0.879
relative viability ([21]; first compound 0.1265 µM): 1.04
relative viability ([21]; first compound 0.4 µM): 0.913
relative viability ([21]; first compound 1.265 µM): 0.832
relative viability ([21]; first compound 4 µM): 0.882
relative viability ([22]; first compound 0.04 µM): 0.608
relative viability ([22]; first compound 0.1265 µM): 0.71
relative viability ([22]; first compound 0.4 µM): 0.821
relative viability ([22]; first compound 1.265 µM): 0.61
relative viability ([22]; first compound 4 µM): 0.627
relative viability ([23]; first compound 0.04 µM): 0.466
relative viability ([23]; first compound 0.1265 µM): 0.521
relative viability ([23]; first compound 0.4 µM): 0.506
relative viability ([23]; first compound 1.265 µM): 0.55
relative viability ([23]; first compound 4 µM): 0.355
